# Experimental data: PMC7732531 (Frontiers in Pharmacology, 2020)
# How the values were obtained:
# [1] = Blood/plasma partitional ratio, rat blood; format: in vitro ADME; settings: fresh pooled whole blood with heparin, rat whole blood, 37°C, read-out: blood/plasma partitioning (R b/P)
# Protocol: The blood/plasma partitional ratio (R b/p) in rat and human blood was measured in vitro using fresh pooled blood including heparin. Whole blood was preincubated at 37°C in a water bath, and spiked with YL-IPA08 at 1 µM. The blood samples were incubated at 37°C for 1 h. After incubation, aliquots of 25 µl spiked whole blood were removed, and the remaining blood was centrifuged at 2,000 × g for 10 min, after which 25 µl aliquots of plasma were removed. Obtained blood and plasma samples were spiked with same volume of blank plasma or blood, respectively, and then immediately precipitated by adding 4× volumes of acetonitrile containing IS to get the same matrix. The concentrations of YL-IPA08 in blood and plasma were determined by LC-MS/MS.
# in vitro = settings: rat, microsomes, pH 7.4
# [2] = Pharmacokinetics in rats with ABT pretreatment (intestinal and hepatic availability); settings: for concentration at 0.033 h / concentration at 0.083 h / concentration at 8 h / concentration at 12 h / concentration at 24 h / concentration at 0.25 h / concentration at 0.5 h / concentration at 1 h / concentration at 2 h / concentration at 4 h / concentration at 6 h / AUC(0-t) / AUC(0-inf) / MRT last / Vd / clearance / half-life / bioavailability / Cmax / Tmax: rat, plasma; for concentration at 0.033 h / concentration at 0.083 h / concentration at 8 h / concentration at 12 h / concentration at 24 h / concentration at 0.25 h / concentration at 0.5 h / concentration at 1 h / concentration at 2 h / concentration at 4 h / concentration at 6 h: Plasma concentration; for concentration at 0.033 h / concentration at 0.083 h / concentration at 8 h / concentration at 12 h / concentration at 24 h / concentration at 0.25 h / concentration at 0.5 h / concentration at 1 h / concentration at 2 h / concentration at 4 h / concentration at 6 h / AUC(0-inf) / MRT last / E g (gut extraction) / E h (hepatic extraction) / F g / F h / F p.o. / reduction of systemic clearance: rats; for MRT last: MRT(0–t)
# [3] = iv, 0.1 mg/kg, p.o. ABT, i.v. YL-IPA08 (0.1 mg/kg)
# [4] = iv, 0.1 mg/kg, with ABT 100 mg/kg p.o., 15 h before dosing
# [5] = iv, 0.5 mg/kg, i.v. ABT, i.v. YL-IPA08 (0.5 mg/kg)
# [6] = iv, 0.5 mg/kg, with ABT 50 mg/kg i.v., 1 h before dosing
# [7] = po, 1 mg/kg, i.v. ABT, p.o. YL-IPA08 (1 mg/kg)
# [8] = po, 1 mg/kg, p.o. ABT, p.o. YL-IPA08 (1 mg/kg)
# [9] = po, 1 mg/kg, with ABT 50 mg/kg i.v., 1 h before dosing
# [10] = po, 1 mg/kg, with ABT 100 mg/kg p.o., 15 h before dosing
compound,measurement,setting,value
CCN(Cc1ccccn1)C(=O)Cc1c(-c2ccc(Cl)c(Cl)c2)nc2cc(C)ccn12 [YL-IPA08],"blood plasma ratio at 1 h, 1 µM",[1],1.12 ± 0.08
same,microsomal CLint at 1 μM,in vitro,53 ± 20 µL/min/mg
same,concentration at 0.033 h,"[2]; intravenous, 0.1 mg/kg, p.o. 100 mg/kg ABT, i.v. 0.1 mg/kg YL-IPA08, 0.033 h",465 ± 68.7 ng/mL
same,concentration at 0.083 h,"[2]; intravenous, 0.1 mg/kg, p.o. 100 mg/kg ABT, i.v. 0.1 mg/kg YL-IPA08, 0.083 h",398 ± 51.3 ng/mL
same,concentration at 8 h,"[2]; intravenous, 0.1 mg/kg, p.o. 100 mg/kg ABT, i.v. 0.1 mg/kg YL-IPA08, 8 h",8.97 ± 2.63 ng/mL
same,concentration at 12 h,"[2]; intravenous, 0.1 mg/kg, p.o. 100 mg/kg ABT, i.v. 0.1 mg/kg YL-IPA08, 12 h",4.58 ± 1.17 ng/mL
same,concentration at 24 h,"[2]; intravenous, 0.1 mg/kg, p.o. 100 mg/kg ABT, i.v. 0.1 mg/kg YL-IPA08, 24 h",0.65 ± 0.29 ng/mL
same,concentration at 0.033 h,"[2]; intravenous, 0.5 mg/kg, i.v. 50 mg/kg ABT, i.v. 0.5 mg/kg YL-IPA08, 0.033 h",398 ± 77.8 ng/mL
same,concentration at 0.083 h,"[2]; intravenous, 0.5 mg/kg, i.v. 50 mg/kg ABT, i.v. 0.5 mg/kg YL-IPA08, 0.083 h",285 ± 28.2 ng/mL
same,concentration at 12 h,"[2]; intravenous, 0.5 mg/kg, i.v. 50 mg/kg ABT, i.v. 0.5 mg/kg YL-IPA08, 12 h",6.73 ± 2.47 ng/mL
same,concentration at 24 h,"[2]; intravenous, 0.5 mg/kg, i.v. 50 mg/kg ABT, i.v. 0.5 mg/kg YL-IPA08, 24 h",2.01 ± 0.93 ng/mL
same,concentration at 0.25 h,"[2]; intravenous, i.v. 50 mg/kg ABT, i.v. 0.5 mg/kg YL-IPA08, 0.25 h",208 ± 29.4 ng/mL
same,concentration at 0.5 h,"[2]; intravenous, i.v. 50 mg/kg ABT, i.v. 0.5 mg/kg YL-IPA08, 0.5 h",156 ± 21.5 ng/mL
same,concentration at 1 h,"[2]; intravenous, i.v. 50 mg/kg ABT, i.v. 0.5 mg/kg YL-IPA08, 1 h",113 ± 14.7 ng/mL
same,concentration at 2 h,"[2]; intravenous, i.v. 50 mg/kg ABT, i.v. 0.5 mg/kg YL-IPA08, 2 h",54.8 ± 11.8 ng/mL
same,concentration at 4 h,"[2]; intravenous, i.v. 50 mg/kg ABT, i.v. 0.5 mg/kg YL-IPA08, 4 h",17.6 ± 5.36 ng/mL
same,concentration at 6 h,"[2]; intravenous, i.v. 50 mg/kg ABT, i.v. 0.5 mg/kg YL-IPA08, 6 h",10.8 ± 3.07 ng/mL
same,concentration at 8 h,"[2]; intravenous, i.v. 50 mg/kg ABT, i.v. 0.5 mg/kg YL-IPA08, 8 h",8.91 ± 3.06 ng/mL
same,concentration at 0.25 h,"[2]; intravenous, p.o. 100 mg/kg ABT, i.v. 0.1 mg/kg YL-IPA08, 0.25 h",266 ± 55.2 ng/mL
same,concentration at 0.5 h,"[2]; intravenous, p.o. 100 mg/kg ABT, i.v. 0.1 mg/kg YL-IPA08, 0.5 h",245 ± 30.4 ng/mL
same,concentration at 1 h,"[2]; intravenous, p.o. 100 mg/kg ABT, i.v. 0.1 mg/kg YL-IPA08, 1 h",192 ± 16.5 ng/mL
same,concentration at 2 h,"[2]; intravenous, p.o. 100 mg/kg ABT, i.v. 0.1 mg/kg YL-IPA08, 2 h",114 ± 13.7 ng/mL
same,concentration at 4 h,"[2]; intravenous, p.o. 100 mg/kg ABT, i.v. 0.1 mg/kg YL-IPA08, 4 h",38.7 ± 13.7 ng/mL
same,concentration at 6 h,"[2]; intravenous, p.o. 100 mg/kg ABT, i.v. 0.1 mg/kg YL-IPA08, 6 h",14.5 ± 3.66 ng/mL
same,AUC(0-t),"[2]; iv, 0.1 mg/kg",125 ± 46.9 ng·h/mL
same,AUC(0-inf),[2]; [3],126 ± 46.6 ng·h/mL
same,MRT last,[2]; [3],5.45 ± 0.66 h
same,Vd,[2]; [4],1.54 ± 0.49 L/kg
same,clearance,[2]; [4],15 ± 4.78 mL/min/kg
same,half-life,[2]; [4],1.19 ± 0.12 h
same,AUC(0-t),"[2]; iv, 0.5 mg/kg",472 ± 64.3 ng·h/mL
same,AUC(0-inf),[2]; [5],476 ± 65.8 ng·h/mL
same,MRT last,[2]; [5],3.82 ± 0.32 h
same,Vd,[2]; [6],2.24 ± 0.28 L/kg
same,clearance,[2]; [6],17.8 ± 2.74 mL/min/kg
same,half-life,[2]; [6],1.46 ± 0.14 h
same,concentration at 0.083 h,"[2]; oral, 1 mg/kg, i.v. 50 mg/kg ABT, p.o. 1mg/kg YL-IPA08, 0.083 h",9.32 ± 7.18 ng/mL
same,concentration at 8 h,"[2]; oral, 1 mg/kg, i.v. 50 mg/kg ABT, p.o. 1mg/kg YL-IPA08, 8 h",4.51 ± 2.58 ng/mL
same,concentration at 12 h,"[2]; oral, 1 mg/kg, i.v. 50 mg/kg ABT, p.o. 1mg/kg YL-IPA08, 12 h",3.98 ± 4.24 ng/mL
same,concentration at 24 h,"[2]; oral, 1 mg/kg, i.v. 50 mg/kg ABT, p.o. 1mg/kg YL-IPA08, 24 h",1.28 ± 0.53 ng/mL
same,concentration at 0.083 h,"[2]; oral, 1 mg/kg, p.o. 100 mg/kg ABT, p.o. 1 mg/kg YL-IPA08, 0.083 h",546 ± 637 ng/mL
same,concentration at 8 h,"[2]; oral, 1 mg/kg, p.o. 100 mg/kg ABT, p.o. 1 mg/kg YL-IPA08, 8 h",34.2 ± 19.6 ng/mL
same,concentration at 12 h,"[2]; oral, 1 mg/kg, p.o. 100 mg/kg ABT, p.o. 1 mg/kg YL-IPA08, 12 h",17.4 ± 8.5 ng/mL
same,concentration at 24 h,"[2]; oral, 1 mg/kg, p.o. 100 mg/kg ABT, p.o. 1 mg/kg YL-IPA08, 24 h",1.39 ± 0.98 ng/mL
same,bioavailability,"[2]; oral, 1 mg/kg, with ABT 50 mg/kg i.v., 1 h before dosing",19.7%
same,concentration at 0.25 h,"[2]; oral, i.v. 50 mg/kg ABT, p.o. 1mg/kg YL-IPA08, 0.25 h",28.2 ± 25.2 ng/mL
same,concentration at 0.5 h,"[2]; oral, i.v. 50 mg/kg ABT, p.o. 1mg/kg YL-IPA08, 0.5 h",30.3 ± 35.4 ng/mL
same,concentration at 1 h,"[2]; oral, i.v. 50 mg/kg ABT, p.o. 1mg/kg YL-IPA08, 1 h",34.8 ± 50.4 ng/mL
same,concentration at 2 h,"[2]; oral, i.v. 50 mg/kg ABT, p.o. 1mg/kg YL-IPA08, 2 h",30.5 ± 42 ng/mL
same,concentration at 4 h,"[2]; oral, i.v. 50 mg/kg ABT, p.o. 1mg/kg YL-IPA08, 4 h",13.3 ± 17.1 ng/mL
same,concentration at 6 h,"[2]; oral, i.v. 50 mg/kg ABT, p.o. 1mg/kg YL-IPA08, 6 h",6.4 ± 4.73 ng/mL
same,concentration at 0.25 h,"[2]; oral, p.o. 100 mg/kg ABT, p.o. 1 mg/kg YL-IPA08, 0.25 h",403 ± 402 ng/mL
same,concentration at 0.5 h,"[2]; oral, p.o. 100 mg/kg ABT, p.o. 1 mg/kg YL-IPA08, 0.5 h",370 ± 354 ng/mL
same,concentration at 1 h,"[2]; oral, p.o. 100 mg/kg ABT, p.o. 1 mg/kg YL-IPA08, 1 h",334 ± 247 ng/mL
same,concentration at 2 h,"[2]; oral, p.o. 100 mg/kg ABT, p.o. 1 mg/kg YL-IPA08, 2 h",246 ± 150 ng/mL
same,concentration at 4 h,"[2]; oral, p.o. 100 mg/kg ABT, p.o. 1 mg/kg YL-IPA08, 4 h",125 ± 71.7 ng/mL
same,concentration at 6 h,"[2]; oral, p.o. 100 mg/kg ABT, p.o. 1 mg/kg YL-IPA08, 6 h",47.7 ± 28.6 ng/mL
same,AUC(0-t),"[2]; po, 1 mg/kg",185 ± 148 ng·h/mL
same,AUC(0-inf),[2]; [7],188 ± 146 ng·h/mL
same,AUC(0-inf),[2]; [8],876 ± 183 ng·h/mL
same,MRT last,[2]; [7],8.37 ± 3.67 h
same,MRT last,[2]; [8],5.51 ± 1.25 h
same,Cmax,[2]; [9],41.8 ± 42 ng/mL
same,Tmax,[2]; [9],0.87 ± 0.68 h
same,AUC(0-t),[2]; [10],868 ± 185 ng·h/mL
same,Cmax,[2]; [10],176 ± 88.5 ng/mL
same,Tmax,[2]; [10],1.4 ± 1.32 h
same,bioavailability,[2]; [10],69.7%
same,E g (gut extraction),[2]; ABT i.v.,75%
same,E h (hepatic extraction),[2]; ABT i.v.,20%
same,F g,[2]; ABT i.v.,25%
same,F h,[2]; ABT i.v.,80%
same,F p.o.,[2]; ABT i.v.,~20%
same,E g (gut extraction),[2]; ABT p.o.,16%
same,E h (hepatic extraction),[2]; ABT p.o.,17%
same,F g,[2]; ABT p.o.,84%
same,F h,[2]; ABT p.o.,83%
same,F p.o.,[2]; ABT p.o.,~70%
same,reduction of systemic clearance,[2]; ABT pretreatment through i.v. injection,about 75%
same,reduction of systemic clearance,[2]; ABT pretreatment through oral gavage,~80%
same,E g (gut extraction),[2]; No ABT,65%
same,E h (hepatic extraction),[2]; No ABT,83%
same,F g,[2]; No ABT,35%
same,F h,[2]; No ABT,17%
same,F p.o.,[2]; No ABT,6%
